Experimental data taken from PubChem BioAssay (NCI).
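All cell lines were grown in 96-well plates and treated with compound for 48 hours. TGI denotes the concentration required for complete inhibition of growth.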

Legend:
Experiment in all cases: growth of human tumour cells (NCI), 48 h
NCI-H460 lung = tested on: NCI-H460 lung
IGROV1 ovarian = tested on: IGROV1 ovarian
OVCAR-4 ovarian = tested on: OVCAR-4 ovarian
HT29 colon = tested on: HT29 colon
UACC-62 melanoma = tested on: UACC-62 melanoma
SK-MEL-2 melanoma = tested on: SK-MEL-2 melanoma
HOP-62 NSCLC = tested on: HOP-62 NSCLC
SW-620 colon = tested on: SW-620 colon
HCT-116 colon = tested on: HCT-116 colon
SF-268 CNS = tested on: SF-268 CNS

SMILES	TGI (NCI-H460 lung) [µM]	TGI (IGROV1 ovarian) [µM]	TGI (OVCAR-4 ovarian) [µM]	TGI (HT29 colon) [µM]	TGI (UACC-62 melanoma) [µM]	TGI (SK-MEL-2 melanoma) [µM]	TGI (HOP-62 NSCLC) [µM]	TGI (SW-620 colon) [µM]	TGI (HCT-116 colon) [µM]	TGI (SF-268 CNS) [µM]
CCSC1=CC(=O)c2nc3ccccc3c3ccnc1c23	23.8	9.4	7.53	16.9	4.32	5.6	> 51.3	> 21.4	> 25.1	> 22
CC(C)=CCc1c2c(c3occ(-c4ccc(O)c(O)c4)c(=O)c3c1O)C=CC(C)(C)O2	3.21	6	3.39	3.84	14.2	11.1	4.4	2.36	4.29	4.93
COc1ccc(N[C@H](CSc2ccc(C)cc2)c2ccc(F)cc2)cc1	> 100	> 100	> 100	> 100	> 100	> 100	> 100	> 100	> 100	> 100
O=c1c2ncn(C3CC(O)C(CO)O3)c2nnn1Cc1ccccc1[N+](=O)[O-] (stereo not given)	> 100	> 100	> 100	> 100	> 100	> 100	> 100	> 100	> 100	> 100
